PMC5063506, “A Novel Class of Small Molecule Agonists with Preference for Human over Mouse TLR4 Activation” (PLoS ONE, 2016)
Converted amounts (≈) assume the structure as drawn. Like-named read-outs stand apart in the source and are kept apart here.

Assays:
[1] = target: T1, human TLR4 (Homo sapiens, UniProt O00206+Q9Y6Y9); assay: Human TLR4 NFκB SEAP reporter gene assay in hTLR4-transfected HEK293 cells; type: cell-based; conditions: for EC50: NFκB SEAP reporter, hTLR4-transfected HEK293 cells, 20 h, read-out: Human TLR4 pEC50 (converted)
T1 construct: expressed in transfected cells; host or cells: HEK293 with stably integrated pNiFty2-SEAP reporter
T1 sequence (O00206 24-839): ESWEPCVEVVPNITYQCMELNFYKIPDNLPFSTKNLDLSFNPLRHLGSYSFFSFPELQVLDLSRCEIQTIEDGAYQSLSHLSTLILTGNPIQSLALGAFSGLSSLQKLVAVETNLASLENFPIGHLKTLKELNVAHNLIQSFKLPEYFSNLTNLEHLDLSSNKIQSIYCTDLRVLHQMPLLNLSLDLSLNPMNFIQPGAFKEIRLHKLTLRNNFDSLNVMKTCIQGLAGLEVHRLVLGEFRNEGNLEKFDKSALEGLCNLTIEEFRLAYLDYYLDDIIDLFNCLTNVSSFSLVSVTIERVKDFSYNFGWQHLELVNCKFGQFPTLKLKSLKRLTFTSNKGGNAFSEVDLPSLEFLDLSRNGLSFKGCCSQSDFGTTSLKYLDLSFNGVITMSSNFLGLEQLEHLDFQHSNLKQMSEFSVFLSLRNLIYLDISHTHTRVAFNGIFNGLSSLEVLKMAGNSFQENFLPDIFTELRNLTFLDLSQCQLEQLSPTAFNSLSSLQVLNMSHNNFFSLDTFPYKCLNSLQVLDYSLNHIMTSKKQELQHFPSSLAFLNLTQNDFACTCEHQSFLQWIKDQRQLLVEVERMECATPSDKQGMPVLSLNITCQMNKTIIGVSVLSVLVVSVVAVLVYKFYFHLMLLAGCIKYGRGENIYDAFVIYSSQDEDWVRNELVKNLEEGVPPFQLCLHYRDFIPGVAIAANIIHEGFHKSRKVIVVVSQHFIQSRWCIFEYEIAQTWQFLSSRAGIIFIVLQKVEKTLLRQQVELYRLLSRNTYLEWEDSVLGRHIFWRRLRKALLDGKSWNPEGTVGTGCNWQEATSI
T1 sequence (Q9Y6Y9 19-160): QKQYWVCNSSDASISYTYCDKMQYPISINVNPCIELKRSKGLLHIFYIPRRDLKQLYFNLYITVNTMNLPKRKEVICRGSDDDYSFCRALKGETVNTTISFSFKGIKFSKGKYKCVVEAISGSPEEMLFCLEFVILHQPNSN
Protocol: (§1) HEK293 cells stably transfected with pNiFty2-SEAP reporter plasmid were transiently transfected with either human or mouse TLR4 (pUNO expression vector), in combination with either human or mouse CD14/MD2 (pDUO expression vector). Transient transfectants were seeded in Dulbecco’s Modified Eagle Medium, FCS 10% (v/v), 2 mM l glutamine and non-essential amino acids. Cells were seeded in tissue culture treated clear flat bottom polystyrene 96 well plates (Costar, 3598) at 1e4 cells/well. Concentration-response curves were generated by addition of test compounds and incubation for 20 h at 37°C in an atmosphere of 5% CO2. LPS (E. coli 0111:B4, Ultra-pure, Invivogen) or PHAD (Avanti Polar Lipids) was used as a positive control. The SEAP released was quantified using p nitrophenyl phosphate as a substrate, and the absorbance at 405 nm was measured at 30 second intervals over several minutes using a microplate reader. Some data are recorded as the pEC50, the negative log of the EC50 value. Other data generated from these reporter cell lines were converted to AUC (area under the curve) values by interpolation of fitted cubic spline curve between OD value and log concentration levels. The calculation is performed using MESS package in statistical software R (www.r-project.org/).

[2] = LogD, octanol/water distribution coefficient; type: physicochemical; conditions: pH 7.4; octanol/water distribution coefficient at pH7.4
Source text: (§2) Fig 2 Optimization stages of Ugi products as TLR4 agonists. *Human TLR-4 NFκB SEAP reporter assays; protocol as described in Methods. Data are reported as pEC50, or negative log of the EC50 values. **Clint rh / hm represents intrinsic clearance in presence of rat hepatocytes (μL/min/10^6 cells) and human microsomes (μL/min/mg protein). […] Thus a drug molecule with LogD >4 might be considered to be very lipophilic and therefore more likely to suffer from rapid metabolic turnover, poor solubility and receptor promiscuity; whereas a LogD range of 1–3 is more likely to be associated with optimal physicochemical and drug-like properties. ^††Solubility was measured by dissolution of solid samples in buffer at pH 7.4.

[3] = Intrinsic clearance in presence of rat hepatocytes; type: in vitro ADME; conditions: read-out: Clint rh (intrinsic clearance, rat hepatocytes)
Source text: as §2

[4] = Intrinsic clearance in presence of human microsomes; type: in vitro ADME; conditions: read-out: Clint hm (intrinsic clearance, human microsomes)
Source text: as §2

[5] = Solubility by dissolution of solid samples in buffer; type: physicochemical; conditions: aqueous buffer, thermodynamic from solid; solid samples in buffer at pH 7.4
Source text: as §2

[6] = test system: cytochrome P450 enzymes; assay: Inhibition of cytochrome P450 enzymes (unpublished data); type: in vitro ADME; conditions: compared with earlier-stage, more lipophilic Ugi compounds
[7] = target: T2, human TLR4/MD2 (Homo sapiens, UniProt O00206+Q9Y6Y9); assay: hTLR4/MD2-HEK293 transfectant SEAP (QUANTI-Blue) dose response, AUC; type: cell-based; conditions: 1 μg/ml to 4 ng/ml, 24 h, SEAP OD 650 nm vs log concentration
T2 construct: host or cells: HEK293
T2 sequence (O00206 24-839): as the sequence (O00206 24-839) above
T2 sequence (Q9Y6Y9 19-160): as the sequence (Q9Y6Y9 19-160) above
Protocol: as §1, with “Cells” for “HEK293 cells stably transfected with pNiFty2-SEAP reporter plasmid were transiently transfected with either human or mouse TLR4 (pUNO expression vector), in combination with either human or mouse CD14/MD2 (pDUO expression vector). Transient transfectants were seeded in Dulbecco’s Modified Eagle Medium, FCS 10% (v/v), 2 mM l glutamine and non-essential amino acids. Cells”
(§3) Fig 4 Ugi compounds preferentially activate TLR4-HEK transfectants expressing human MD2. A-B) HEK293 cells transfected with human TLR4/MD2 or mouse TLR4/MD2 (InVivogen) were stimulated with TLR4 agonists including MPL, PHAD, and Ugi compounds at 1 μg/ml to 4 ng/ml and with LPS at 25 ng/ml to 64 pg/ml for 24 h. SNs were analyzed for SEAP content by the QUANTI-Blue assay (InVivogen) and analysis at 650 nm by spectrophotometer. AUC (area under the curve) values were calculated as in Methods. No AUC value was calculated for LPS since it was utilized with a different dose range. C) HEK transfectants with cis- or trans-species expression of TLR4, MD2, and CD14 were stimulated with Ugi compounds in a dose response range of 9 μM to 1 nM or with LPS (boxes) at 75 ng/ml to 5 pg/ml for 48 h. Data was obtained as Vmax calculated over the initial linear portion of the kinetic absorbance measurements. The AUC (area under the curve) value for the dose response curve of Vmax vs log10 (molar units) was calculated for each compound using Trapezoidal rule. TEXT PRINTED IN THE PICTURE: (A) MPL: hTLR4-HEK AUC: 0.55 | (A) AZ617: hTLR4-HEK AUC: 5.90 | (A) AZ618: hTLR4-HEK AUC: 6.56 | (A) AZ839: hTLR4-HEK AUC: 6.00 | (A) AZ161: hTLR4-HEK AUC: 5.54 | (A) AZ902: hTLR4-HEK AUC: 7.04 | (A) GLA: hTLR4-HEK AUC: 3.75 | (B) MPL: mTLR4-HEK AUC: 13.27 | (B) AZ617: mTLR4-HEK AUC: 0.89 | (B) AZ618: mTLR4-HEK AUC: 1.03 | (B) AZ839: mTLR4-HEK AUC: 0.93 | (B) AZ161: mTLR4-HEK AUC: 0.99 | (B) AZ902: mTLR4-HEK AUC: 1.55 | (B) GLA: mTLR4-HEK AUC: 14.24

[8] = target: T3, mouse TLR4/MD2 (Mus musculus, UniProt Q9JHF9+Q9QUK6); assay: mTLR4/MD2-HEK293 transfectant SEAP (QUANTI-Blue) dose response, AUC; type: cell-based; conditions: 1 μg/ml to 4 ng/ml, 24 h, SEAP OD 650 nm vs log concentration
T3 construct: host or cells: HEK293
T3 sequence (Q9QUK6 26-835): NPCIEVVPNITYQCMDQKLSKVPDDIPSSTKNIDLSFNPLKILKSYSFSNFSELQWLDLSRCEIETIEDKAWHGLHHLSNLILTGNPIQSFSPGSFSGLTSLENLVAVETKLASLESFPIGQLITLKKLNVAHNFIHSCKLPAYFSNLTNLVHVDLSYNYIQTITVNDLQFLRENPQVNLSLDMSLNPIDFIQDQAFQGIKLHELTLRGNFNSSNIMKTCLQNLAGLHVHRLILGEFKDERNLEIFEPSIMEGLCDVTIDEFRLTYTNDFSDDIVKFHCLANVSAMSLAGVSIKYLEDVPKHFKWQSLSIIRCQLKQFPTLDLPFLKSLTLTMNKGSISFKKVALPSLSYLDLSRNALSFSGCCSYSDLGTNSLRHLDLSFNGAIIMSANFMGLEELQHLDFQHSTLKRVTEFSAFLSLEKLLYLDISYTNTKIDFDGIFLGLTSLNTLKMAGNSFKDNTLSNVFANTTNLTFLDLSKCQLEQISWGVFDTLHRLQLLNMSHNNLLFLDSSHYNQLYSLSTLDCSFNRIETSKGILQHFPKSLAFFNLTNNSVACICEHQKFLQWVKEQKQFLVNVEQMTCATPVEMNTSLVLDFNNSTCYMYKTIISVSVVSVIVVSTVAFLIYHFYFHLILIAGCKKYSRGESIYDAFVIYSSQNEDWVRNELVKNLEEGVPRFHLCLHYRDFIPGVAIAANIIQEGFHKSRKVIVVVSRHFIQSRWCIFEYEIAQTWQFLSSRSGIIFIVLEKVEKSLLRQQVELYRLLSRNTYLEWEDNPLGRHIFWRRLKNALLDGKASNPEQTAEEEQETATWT
T3 sequence (Q9JHF9 19-160): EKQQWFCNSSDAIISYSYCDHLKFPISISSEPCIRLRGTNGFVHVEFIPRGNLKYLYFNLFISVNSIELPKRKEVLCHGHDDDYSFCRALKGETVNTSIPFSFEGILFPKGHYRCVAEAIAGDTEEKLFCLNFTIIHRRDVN
Protocol: as §1, with “Cells” for “HEK293 cells stably transfected with pNiFty2-SEAP reporter plasmid were transiently transfected with either human or mouse TLR4 (pUNO expression vector), in combination with either human or mouse CD14/MD2 (pDUO expression vector). Transient transfectants were seeded in Dulbecco’s Modified Eagle Medium, FCS 10% (v/v), 2 mM l glutamine and non-essential amino acids. Cells”
as §3

[9] = test system: C57BL/6 w.t. BMDCs; assay: Cytokine induction in BMDCs of w.t. C57BL/6 mice; type: cell-based, mouse; conditions: 24 h, 1 μg/ml TLR4 agonists, 2 μM R848
Source text: (§4) Femur/tibia bones from w.t. C57BL/6, TLR4/MD2 KO, and hTLR4/MD2 KIKO mice were soaked in 10% FBS-RPMI. Muscle and fat tissue was stripped off from the bones with a scalpel, then, bone pairs from individual mice were transferred to 100 mm petri dishes. Femur and tibia bones were separated and the ends cut with dissecting scissors so that bone marrow cells (BMCs) could be removed by flushing the interior of the bones using a 21 G needle and warm 10% FBS-RPMI. BMCs were passed through a 70 μm strainer, followed by RBC lysis. BMCs were cultured in a 70 mm flask for 24 h in the presence of 10 ng/ml (200 unit/ml) of mGM-CSF. Non-adherent cells were collected, washed, and seeded in a 175 cm flask in the presence of 20 ng/ml of mGM-CSF. Every two days, the cells were fed with fresh media and 20 ng/ml mGM-CSF. On day 9, cells were harvested, washed, and stained for CD11c/CD11b expression to determine BMDC density. BMDCs were cultured at 50,000 cells/well for 24 h with 1 μg/ml MPL, LPS, Ugi compounds, or 2 μM R848 (InVivogen).
(§5) Fig 10 Ugi compounds activate mouse BMDCs that express human TLR4/MD2. Bone marrow cells were isolated from femur/tibia bones of w.t. […] BMDCs were harvested at day 9, washed, counted, and stimulated in vitro for 24 h with 1 μg/ml TLR4 agonists and 2 μM R848. SNs were analyzed via mouse MILLIPLEX kits. Data are expressed as the means of 2 mice and are representative of 2 studies.

[10] = test system: TLR4/MD2 KO BMDCs; assay: Cytokine induction in BMDCs of mTLR4/MD2 knockout mice; type: cell-based, mouse; conditions: 24 h, 1 μg/ml TLR4 agonists, 2 μM R848
Source text: as §4, §5

Row | EC50 [1] [nM] | logD [2] | SMILES | other results
1 | 1.58 |  | CC(C)c1ccc(N(C(=O)c2cc(-c3ccccc3)n(-c3ccccc3)n2)C(C(=O)NC2CCCC2)c2ccc(/C=C/C(=O)O)cc2)cc1 (stereo not shown) [AZ368, (E)-3-(4-(2-(cyclopentylamino)-1-(N-(4-isopropylphenyl)-1,5-diphenyl-1H-pyrazole-3-carboxamido)-2-oxoethyl)phenyl)acrylic acid] | 
2 | 100 | 2.74 | COc1ccc(N(C(=O)c2cc(-c3ccccc3)n(-c3ccccc3)n2)C(C(=O)NC2CCCC2)c2ccc(CC(=O)O)cc2)cc1 (stereo not shown) [AZ635] | 
3 | 158 | > 4.5 | CC(C)c1ccc(N(C(=O)c2cc(-c3ccccc3)n(-c3ccccc3)n2)C(C(=O)NC2CCCC2)c2ccc(CC(=O)NO)cc2)cc1 (stereo not shown) [AZ226] | 
4 |  | > 4.5 | C#Cc1ccc(C(C(=O)NC2CCCC2)N(C(=O)c2cc(-c3ccccc3)n(-c3ccccc3)n2)c2ccc(OC)cc2)cc1 (stereo not shown) [AZ606] | increase in potency in the hTLR4-HEK assay ([1]; relative to AZ126): 10 fold; hepatocyte CLint [3]: 36 µL/min/1e6 cells; microsomal CLint [4]: 39 µL/min/mg; solubility [5]: 2.2 µM (≈ 1.31 µg/mL); inhibition of one or more cytochrome P450 enzymes [6]: greatly reduced
5 | 12.3 | 4.3 | O=C(O)Cc1ccc(C(C(=O)NC2CCCC2)N(C(=O)c2cc(-c3ccccc3)n(-c3ccccc3)n2)c2ccc(Cc3ccccc3)cc2)cc1 (stereo not shown) [AZ897] | 

The next lines start with the compound.

Row | SMILES | EC50 [1] [nM] | logD [2] | other results
6 | C#Cc1ccc(C(C(=O)NC2CCCC2)N(C(=O)c2ccc(-c3ccccc3)[nH]2)c2ccc(OC)cc2)cc1 (stereo not shown) [AZ462] | 1000 | > 4.5 | 
7 | C#Cc1ccc(C(C(=O)N[C@@H](C(=O)O)C(C)C)N(C(=O)c2cc(-c3ccccc3)n(-c3ccccc3)n2)c2ccc(OC)cc2)cc1 (stereo partly shown) [AZ792] | 2000 |  | 
8 | CCCCCCCCCCCCCC(=O)O[C@H](CCCCCCCCCCC)CC(=O)O[C@@H]1[C@@H](NC(=O)C[C@H](CCCCCCCCCCC)OC(=O)CCCCCCCCCCCCC)[C@H](OC[C@H]2O[C@H](O)[C@H](NC(=O)C[C@H](O)CCCCCCCCCCC)[C@@H](OC(=O)C[C@H](O)CCCCCCCCCCC)[C@@H]2O)O[C@H](CO)[C@H]1OP(=O)(O)O [GLA, glucopyranosyl lipid A, reference compound] |  |  | hTLR4-HEK AUC [7]: 3.75; mTLR4-HEK AUC [8]: 14.24
9 | CCOCc1nc2c(N)nc3ccccc3c2n1CC(C)(C)O [R848] |  |  | cytokine response of C57BL/6 w.t. BMDCs [9]: strong response; cytokine response of mTLR4/MD2 knockout BMDCs [10]: retained
10 | COc1ccc(N(C(=O)c2[nH]c(-c3ccccc3)cc2C)C(C(=O)NC2CCCC2)c2ccncc2)cc1 (stereo not shown) [AZ126, N-(2-(cyclopentylamino)-2-oxo-1-(pyridin-4-yl)ethyl)-N-(4-methoxyphenyl)-3-methyl-5-phenyl-1H-pyrrole-2-carboxamide] | 2510 | > 4.5 | hepatocyte CLint ([3]; rat): 28 µL/min/1e6 cells; microsomal CLint ([4]; human): 56 µL/min/mg; solubility [5]: 0.1 µM (≈ 0.0509 µg/mL)
11 | Cc1cccc(CN(C(=O)c2cc(-c3ccccc3)n(-c3ccccc3)n2)C(C(=O)NC2CCCC2)c2ccc(CC(=O)O)cc2)c1C (stereo not shown) [AZ839] | 25.1 | 3.62 | hTLR4-HEK AUC [7]: 6.00; mTLR4-HEK AUC [8]: 0.93
12 | COc1ccc(N(C(=O)c2cc(-c3ccccc3)n(-c3ccccc3)n2)C(C(=O)NC2CCCC2)c2ccncc2)cc1 (stereo not shown) [AZ842] | 398 | > 4.5 | 
